Experimental data: article PMC11879040, “Advancing systemic toxicity risk assessment: Evaluation of a NAM-based toolbox approach” (Toxicological Sciences, 2024)
Like-named read-outs stand apart in the source and are kept apart here. Peptide text beside a SMILES is read from it.

Tests used:
[1] = molecular target: Voltage-dependent L-type Ca2+ channel (dihydropyridine site), CACNA1C (r) (Rattus norvegicus, UniProt P22002); type: binding; settings: IPP screening at 10 uM; control nitrendipine
[2] = system: Glutamate receptor ionotropic NMDA 1 non-selective, GRIN1 (r); settings: control CGS 19755
[3] = system: Thyroid hormone receptor alpha, THRA (h); assay: IPP THRA coactivator recruitment (agonist); type: biochemical, human; settings: agonist, T3
[4] = molecular target: Potassium voltage-gated channel subfamily H member 2 hERG, KCNH2 (h) (Homo sapiens, UniProt Q12809); settings: [3H] Dofetilide, control Terfenadine
[5] = system: HepG2 cells; assay: Cell stress panel (CSP), 24 h, 8 concentrations, BIFROST global PoD; type: cell-based; settings: for pod_cell_stress PoD: HepG2, cell stress panel PoD
Method: Compounds were tested using the previously developed cell stress panel ([Hatherell et al. 2020]) and the expanded biomarker panel outlined in Middleton et al. HepG2 cells were treated with all compounds for 24 h across 8 concentrations prior to biomarker analysis. The same plate layout and number of replicates (3 biological and 2 technical) were used as previously for each assay within the panel.

[6] = PBK level L2; at the given pH; single value or median; ref [1],[4],[5],[10],[11],[17],[26]; cited from earlier work
[7] = system: rat; settings: rat, cited from earlier work; for PoD (NOAEL): ref ToxRefDB/Paul-Friedman et al. (2020)/regulatory opinions
[8] = system: Potassium Voltage-Gated Channel Kv non-selective, KCNQ1 (r); assay: IPP KCNQ1 binding (antagonist radioligand); parameters: species or system rat; settings: control α-dendrotoxin
[9] = Assignment of risk classifications to benchmark chemical-exposure scenarios; settings: for risk: from table S1
[10] = molecular target: T1, Estrogen receptor, ER1 (h) (Homo sapiens, UniProt P03372); assay: IPP ER1 coactivator recruitment (antagonist); type: biochemical; settings: estriol
T1 construct: purchased Eurofins Cerep (SafetyScreen44-based IPP panel)
T1 sequence (P03372 1-595): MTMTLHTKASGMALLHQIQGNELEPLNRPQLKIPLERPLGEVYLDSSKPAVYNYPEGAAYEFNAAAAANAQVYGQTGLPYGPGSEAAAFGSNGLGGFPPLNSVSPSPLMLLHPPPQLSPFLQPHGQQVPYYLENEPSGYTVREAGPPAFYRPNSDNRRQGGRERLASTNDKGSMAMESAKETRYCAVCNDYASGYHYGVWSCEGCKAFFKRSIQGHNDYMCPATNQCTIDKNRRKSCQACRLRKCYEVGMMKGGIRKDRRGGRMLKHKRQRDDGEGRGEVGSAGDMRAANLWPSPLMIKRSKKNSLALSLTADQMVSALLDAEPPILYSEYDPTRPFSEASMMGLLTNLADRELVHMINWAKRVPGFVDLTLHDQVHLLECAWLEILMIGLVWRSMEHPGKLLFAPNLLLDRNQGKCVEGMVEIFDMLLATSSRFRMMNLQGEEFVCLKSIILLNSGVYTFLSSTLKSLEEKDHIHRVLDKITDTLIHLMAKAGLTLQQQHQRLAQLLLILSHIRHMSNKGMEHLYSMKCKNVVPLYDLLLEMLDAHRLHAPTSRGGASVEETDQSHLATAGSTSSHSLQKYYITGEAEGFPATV

[11] = molecular target: T1, Estrogen receptor, ER1 (h); assay: IPP ER1 coactivator recruitment (agonist); type: biochemical; settings: estriol
[12] = system: HepaRG cells; assay: High-throughput transcriptomics (HTTr, TempO-Seq), HepaRG, 24 h; type: cell-based, human; settings: HepaRG; for pod_httr_bifrost PoD: HTTr BIFROST PoD; for podl_path_minbmd PoD: HTTr minimum pathway BMD(L)
Method: (§1) HepG2, HepaRG, and MCF7 cells were treated with each compound for 24 h across a dose range of 7 concentrations and lysed using TempO-Seq lysis buffer (BioSpyder Technologies, proprietary kit, see [Middleton et al. 2022] for method details). Sequencing was performed using TempO-Seq (BioClavis) version 2 of the human whole transcriptome panel and analyzed as described previously in Middleton et al.

[13] = molecular target: T2, Pregnane X receptor PXR, NR1I2 (h) (Homo sapiens, UniProt O75469); assay: IPP PXR coactivator recruitment (antagonist); settings: ligand T0901317
T2 sequence (O75469 1-434): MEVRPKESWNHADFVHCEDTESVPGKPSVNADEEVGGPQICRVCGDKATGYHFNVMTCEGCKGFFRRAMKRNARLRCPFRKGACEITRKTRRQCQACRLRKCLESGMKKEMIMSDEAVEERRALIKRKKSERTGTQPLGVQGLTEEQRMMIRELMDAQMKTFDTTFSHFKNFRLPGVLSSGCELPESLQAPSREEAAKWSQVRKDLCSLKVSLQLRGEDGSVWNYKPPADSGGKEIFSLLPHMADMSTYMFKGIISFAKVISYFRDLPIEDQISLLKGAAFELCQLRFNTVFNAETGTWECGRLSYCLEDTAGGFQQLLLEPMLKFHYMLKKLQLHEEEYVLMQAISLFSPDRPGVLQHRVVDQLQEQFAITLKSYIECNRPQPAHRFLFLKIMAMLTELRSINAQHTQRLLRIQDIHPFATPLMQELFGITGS

[14] = system: Tubulin (r); assay: IPP Tubulin binding; parameters: species or system rat; settings: ligand/control Colchicine
[15] = system: MCF7 cells; assay: High-throughput transcriptomics (HTTr, TempO-Seq), MCF7, 24 h; type: cell-based, human; settings: MCF-7; for pod_httr_bifrost PoD: HTTr BIFROST PoD; for podl_path_minbmd PoD: HTTr minimum pathway BMD(L)
Method: as §1

[16] = molecular target: T2, Pregnane X receptor PXR, NR1I2 (h); assay: IPP PXR coactivator recruitment (agonist); settings: T0901317 for control
[17] = system: Sodium channel protein type 5 subunit alpha (site 2), SCN5A (r); type: binding, rat; settings: control veratridine
[18] = molecular target: T3, Adenosine receptor A2a, ADORA2A (h) (Homo sapiens, UniProt P29274); assay: IPP ADORA2A binding (agonist radioligand); settings: control NECA
T3 construct: purchased Eurofins Cerep (SafetyScreen44-based IPP panel)

[19] = system: 63 targets with known safety liabilities; assay: In vitro pharmacological profiling (IPP) panel, screening at 10 or 100 µM and dose response, minimum IC50/AC50; type: biochemical; settings: lowest AC50 across IPP panel (systemic targets); cell_type -; read-out: ipp_lowest_ac50_systemic PoD
[20] = system: HepG2 cells; assay: High-throughput transcriptomics (HTTr, TempO-Seq), HepG2, 24 h; type: cell-based, human; settings: HepG2; for pod_httr_bifrost PoD: HTTr BIFROST PoD; for podl_path_minbmd PoD: HTTr minimum pathway BMD(L)
Method: as §1

[21] = system: Gamma-aminobutyric acid receptor subunit alpha-1 BZD site, GABRA1A (r); type: binding, rat; settings: control diazepam
[22] = PBK level L2; taken or scaled from references (median where several); ref [6],[7],[10],[19]; cited from earlier work
[23] = PBK level L2; single value or median; ref [2],[4],[6],[7],[8],[10],[11],[15],[18],[27],[34]; cited from earlier work
[24] = cited from earlier work
[25] = 100 uM, * denotes assay interference (2-Amino-6-chloro-4-nitrophenol, HC Red 3)

T3 sequence (P29274 whole entry): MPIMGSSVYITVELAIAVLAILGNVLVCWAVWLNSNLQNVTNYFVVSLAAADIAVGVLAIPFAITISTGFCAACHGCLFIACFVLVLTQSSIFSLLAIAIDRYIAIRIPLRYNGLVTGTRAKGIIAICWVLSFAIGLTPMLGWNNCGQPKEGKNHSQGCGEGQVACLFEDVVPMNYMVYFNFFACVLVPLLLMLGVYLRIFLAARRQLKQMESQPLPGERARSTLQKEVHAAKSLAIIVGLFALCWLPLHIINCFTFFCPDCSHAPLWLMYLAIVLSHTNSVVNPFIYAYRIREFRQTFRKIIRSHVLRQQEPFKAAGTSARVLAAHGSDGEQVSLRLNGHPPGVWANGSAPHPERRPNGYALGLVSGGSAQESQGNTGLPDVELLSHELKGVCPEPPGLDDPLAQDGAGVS
Sequence of Potassium voltage-gated channel subfamily H member 2 hERG, KCNH2 (h) (Q12809 whole entry): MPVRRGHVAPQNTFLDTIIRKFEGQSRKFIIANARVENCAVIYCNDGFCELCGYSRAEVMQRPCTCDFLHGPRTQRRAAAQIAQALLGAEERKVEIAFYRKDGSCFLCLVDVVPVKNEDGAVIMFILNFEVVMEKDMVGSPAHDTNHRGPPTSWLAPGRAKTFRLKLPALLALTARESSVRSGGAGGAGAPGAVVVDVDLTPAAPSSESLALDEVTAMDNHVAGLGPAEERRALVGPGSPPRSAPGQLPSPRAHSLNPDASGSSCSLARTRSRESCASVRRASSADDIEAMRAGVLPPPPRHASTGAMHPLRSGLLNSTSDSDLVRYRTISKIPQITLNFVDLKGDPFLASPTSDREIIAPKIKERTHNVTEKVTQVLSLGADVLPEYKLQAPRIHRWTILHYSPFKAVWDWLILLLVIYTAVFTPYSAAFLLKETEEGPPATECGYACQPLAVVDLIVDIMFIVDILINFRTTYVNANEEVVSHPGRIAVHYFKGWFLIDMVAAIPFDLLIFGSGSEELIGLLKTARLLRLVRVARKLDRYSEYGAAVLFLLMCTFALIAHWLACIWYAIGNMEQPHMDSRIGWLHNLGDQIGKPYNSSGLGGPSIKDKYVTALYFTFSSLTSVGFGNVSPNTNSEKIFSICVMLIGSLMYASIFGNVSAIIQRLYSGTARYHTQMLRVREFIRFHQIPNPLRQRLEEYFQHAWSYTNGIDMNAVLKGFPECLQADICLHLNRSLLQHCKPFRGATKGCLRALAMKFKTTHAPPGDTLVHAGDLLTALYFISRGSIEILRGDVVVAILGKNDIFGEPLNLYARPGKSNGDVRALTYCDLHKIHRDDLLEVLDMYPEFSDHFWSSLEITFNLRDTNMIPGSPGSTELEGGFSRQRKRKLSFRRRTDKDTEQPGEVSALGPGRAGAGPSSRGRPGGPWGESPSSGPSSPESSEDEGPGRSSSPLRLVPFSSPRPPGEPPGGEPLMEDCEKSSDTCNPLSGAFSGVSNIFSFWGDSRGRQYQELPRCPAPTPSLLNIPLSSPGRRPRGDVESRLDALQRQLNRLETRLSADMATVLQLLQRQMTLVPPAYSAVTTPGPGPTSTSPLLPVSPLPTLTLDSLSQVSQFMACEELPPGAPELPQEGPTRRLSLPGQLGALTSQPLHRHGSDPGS
Sequence of Voltage-dependent L-type Ca2+ channel (dihydropyridine site), CACNA1C (r) (P22002 whole entry): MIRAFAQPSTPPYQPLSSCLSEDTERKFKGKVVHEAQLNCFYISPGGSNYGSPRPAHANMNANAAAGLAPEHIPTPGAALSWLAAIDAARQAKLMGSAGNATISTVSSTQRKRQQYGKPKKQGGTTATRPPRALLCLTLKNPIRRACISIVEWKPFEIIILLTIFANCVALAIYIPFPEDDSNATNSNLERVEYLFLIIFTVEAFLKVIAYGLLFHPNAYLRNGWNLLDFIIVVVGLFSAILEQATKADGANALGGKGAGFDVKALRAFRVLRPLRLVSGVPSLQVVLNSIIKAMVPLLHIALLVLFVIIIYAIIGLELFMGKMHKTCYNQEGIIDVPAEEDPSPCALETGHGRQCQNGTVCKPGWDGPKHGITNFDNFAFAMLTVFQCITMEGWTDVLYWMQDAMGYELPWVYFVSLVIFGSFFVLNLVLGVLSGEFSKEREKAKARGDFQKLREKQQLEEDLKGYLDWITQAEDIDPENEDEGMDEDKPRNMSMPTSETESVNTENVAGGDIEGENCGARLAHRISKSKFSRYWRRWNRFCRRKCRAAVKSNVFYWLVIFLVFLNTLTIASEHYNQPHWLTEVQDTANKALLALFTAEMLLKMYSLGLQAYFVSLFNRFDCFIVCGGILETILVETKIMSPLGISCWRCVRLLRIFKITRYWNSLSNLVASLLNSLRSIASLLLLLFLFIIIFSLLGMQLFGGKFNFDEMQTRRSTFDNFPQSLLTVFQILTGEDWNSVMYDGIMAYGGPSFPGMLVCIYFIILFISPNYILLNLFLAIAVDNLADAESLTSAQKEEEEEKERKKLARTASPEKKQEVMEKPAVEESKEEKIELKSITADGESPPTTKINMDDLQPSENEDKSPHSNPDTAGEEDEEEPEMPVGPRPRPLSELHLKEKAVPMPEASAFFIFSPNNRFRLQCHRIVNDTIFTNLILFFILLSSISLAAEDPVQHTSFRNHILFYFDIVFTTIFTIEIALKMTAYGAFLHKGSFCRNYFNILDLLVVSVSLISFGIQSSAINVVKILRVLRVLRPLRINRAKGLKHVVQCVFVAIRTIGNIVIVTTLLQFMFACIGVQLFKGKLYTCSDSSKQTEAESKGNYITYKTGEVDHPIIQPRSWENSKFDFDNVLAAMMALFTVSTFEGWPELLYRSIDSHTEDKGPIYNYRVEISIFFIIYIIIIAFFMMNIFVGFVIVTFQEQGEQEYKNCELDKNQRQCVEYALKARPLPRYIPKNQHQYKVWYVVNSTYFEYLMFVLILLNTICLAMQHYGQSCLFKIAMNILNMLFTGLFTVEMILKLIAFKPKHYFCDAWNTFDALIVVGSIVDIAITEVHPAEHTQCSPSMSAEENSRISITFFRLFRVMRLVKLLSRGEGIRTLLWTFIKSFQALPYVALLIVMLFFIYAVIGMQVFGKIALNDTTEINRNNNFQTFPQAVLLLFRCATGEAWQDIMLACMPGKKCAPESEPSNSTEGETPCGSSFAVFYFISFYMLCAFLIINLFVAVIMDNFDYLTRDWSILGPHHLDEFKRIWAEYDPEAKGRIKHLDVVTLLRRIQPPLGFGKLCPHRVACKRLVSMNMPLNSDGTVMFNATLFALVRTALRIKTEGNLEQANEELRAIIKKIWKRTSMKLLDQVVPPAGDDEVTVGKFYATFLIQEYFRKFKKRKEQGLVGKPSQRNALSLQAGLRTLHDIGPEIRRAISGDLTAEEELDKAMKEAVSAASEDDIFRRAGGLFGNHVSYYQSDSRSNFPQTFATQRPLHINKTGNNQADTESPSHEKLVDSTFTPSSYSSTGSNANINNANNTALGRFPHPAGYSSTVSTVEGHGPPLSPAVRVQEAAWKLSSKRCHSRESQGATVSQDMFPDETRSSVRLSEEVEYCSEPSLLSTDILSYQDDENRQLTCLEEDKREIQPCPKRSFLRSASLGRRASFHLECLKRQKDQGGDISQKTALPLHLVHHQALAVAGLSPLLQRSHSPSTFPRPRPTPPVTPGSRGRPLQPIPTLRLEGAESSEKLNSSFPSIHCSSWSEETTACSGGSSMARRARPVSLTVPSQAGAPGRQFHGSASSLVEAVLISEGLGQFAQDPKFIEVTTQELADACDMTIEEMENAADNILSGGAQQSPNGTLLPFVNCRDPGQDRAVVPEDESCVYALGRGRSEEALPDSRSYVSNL

Row | Structure (SMILES) | Specific binding ([2]; IPP screening at 10 uM) [%] | IPP screening %, Coactivator recruitment ([3]; 10 uM) [%] | IPP screening %, Specific binding ([4]; 10 uM) [%] | Bioactivity Observations: cell stress panel [5] | pod_cell_stress PoD [5] [µM] | Specific binding ([8]; IPP screening at 10 uM) [%] | pod_httr_bifrost PoD [12] [µM] | podl_path_minbmd PoD [12] [µM] | IPP screening %, Coactivator recruitment ([13]; 10 uM) [%] | IPP screening %, Specific binding ([14]; 10 uM) [%] | pod_httr_bifrost PoD [15] [µM] | podl_path_minbmd PoD [15] [µM] | IPP screening %, Coactivator recruitment ([16]; 10 uM) [%] | Specific binding ([17]; IPP screening at 10 uM) [%] | Specific binding ([18]; IPP screening at 10 uM) [%] | pod_httr_bifrost PoD [20] [µM] | podl_path_minbmd PoD [20] [µM] | Specific binding ([21]; IPP screening at 10 uM) [%] | Intrinsic Liver Clearance [22] [L/h] | other results
1 | O=[N+]([O-])c1cc(C(F)(F)F)c(Cl)c([N+](=O)[O-])c1Nc1ncc(C(F)(F)F)cc1Cl [Fluazinam, 3-Chloro-N-[3-chloro-2,6-dinitro-4-(trifluoromethyl)phenyl]-5-(trifluoromethyl)pyridin-2-amine] | 1.2 | 2.0 | 16.2 | The seahorse assays within the cell stress panel do report activity and with a very large magnitude of change in the OCR biomarker | 0.6023 | -3.7 | 0.0222 | 0.4338 | 111.2 | 9.0 | 0.1303 | 0.4999 | -8.8 | 19.6 | 14.9 | 0.03634 | 0.699 | -31.4 |  | Specific binding [1]: 99.9%; Aqueous Solubility [6]: 0.95 µg/mL; PoD (NOAEL) ([7]; 104 weeks): 0.38 mg/kg bw/day; Risk Classification ([9]; Oral 0.01 mg/kg bw/day): Low risk; Risk Classification ([9]; Oral 32% of 0.01 mg/kg bw/day): Low risk; risk ([9]; Oral, 32% ADI 0.01 mg/kg bw/day, Food residue, Exp1): 0; risk ([9]; Oral, ADI 0.01 mg/kg bw/day, Food residue, Exp2): 0; IPP screening %, Coactivator recruitment ([10]; 10 uM): 46.0%; IPP screening %, Coactivator recruitment ([11]; 10 uM): -4.0%; AC50 [19]: 430 nM
2 | CCCCOC(=O)c1ccc(O)cc1 [Butylparaben, Butyl 4-hydroxybenzoate] | -5.2 | 2.0 | -13.5 |  | 4.378 | 1.5 |  |  | 6.9 | 8.0 |  |  | 3.1 | 23.9 | 5.4 |  |  | 12.4 | 799.2 | PoD (LOAEL) ([7]; subchronic - 8 weeks, ref Oishi): 10 mg/kg bw/day; Risk Classification ([9]; Dermal […] in Body Lotion): Low risk; risk ([9]; Dermal, […] (regulation says limit is […] as acid), Body lotion, Exp1): 0; Fup [23]: 5.64%; BMDL5 ([24]; ref SCCS): 24 mg/kg/day; Real NOAEL ([24]; ref not given): 1000 mg/kg/day; alternative lowest PoD ([24]; studies stated to be flawed, ref Oishi): 14.4 mg/kg/day
3 | COC(=O)[C@H](Cc1ccccc1)NC(=O)[C@@H](N)CC(=O)O [Aspartame, Methyl L-alpha-aspartyl-L-phenylalaninate] (H-Asp-Phe-OMe) |  |  |  | the CSP shows some small effects on PGC1alpha/Nrf2 and the ECAR (seahorse) | 536.875 |  | 853.753 | 2500 |  |  | 423.587 | 2500 |  |  |  | 1509.3 | 2500 |  | 400.2 | Specific binding ([2]; IPP screening at 100 uM): 24.0%; IPP screening %, Coactivator recruitment [3, 25]: 2.0%; IPP screening %, Specific binding ([4]; 100 uM): 1.5%; PoD (NOAEL) ([7]; 38 days, developmental neurotoxicity study): 1614 mg/kg bw/day; Specific binding ([8]; IPP screening at 100 uM): 2.5%; IPP screening %, Coactivator recruitment [10, 25]: -1.0%; IPP screening %, Coactivator recruitment [11, 25]: 0.0%; IPP screening %, Coactivator recruitment ([13]; 100 uM): -11.9%; IPP screening %, Specific binding ([14]; 100 uM): -13.0%; IPP screening %, Coactivator recruitment ([16]; 100 uM): 15.7%; Specific binding ([17]; IPP screening at 100 uM): 3.9%; Specific binding ([18]; IPP screening at 100 uM): 0.3%; Specific binding ([21]; IPP screening at 100 uM): 7.4%
